Earlier results, collected in US10946075B1 (priority 2014, dated 2021).

Key:
[1] = system: murine neuroblastoma; conditions: mouse, in vivo
[2] = system: mice; conditions: mouse, in vivo, 16 mg/kg
[3] = in vivo
[4] = system: cells
[5] = system: polyamine biosynthesis
[6] = system: bystander effect cells
[7] = system: humans; conditions: human
[8] = system: thyroid gland; conditions: rat, in vivo
[9] = system: mice; conditions: mouse, in vivo
[10] = system: dogs; conditions: dog, in vivo
[11] = system: dogs; conditions: dog, in vivo; remark: listed apart in the source
[12] = system: hamster ovary cells
[13] = system: rat gamete; conditions: in vivo
[14] = in vivo; remark: listed apart in the source
[15] = system: rats; conditions: rat, in vivo

Molecule: O=C(O)CCCCC1CCSS1 (stereo not drawn) [Alpha lipoic acid, Alpha Lipoic Acid]
- survival rate [1]: about 10%
- number of surviving animals [2]: doubled

Molecule: CC1=C(/C=C/C(C)=C/C=C/C(C)=C/C=C/C=C(C)/C=C/C=C(C)/C=C/C2=C(C)CCCC2(C)C)C(C)(C)CCC1 [Beta Carotene]
- survival [3]: 80%

Molecule: NCCC[C@](N)(C(=O)O)C(F)F [DFMO, alpha-difluoromethylornithine]
- radiation-induced cell death [4]: 50-60 % of control
- putrescine and spermidine levels [5]: nondetectable levels
- spermine decrease [5]: 50%

Molecule: C[S+](C)[O-] [DMSO, Dimethylsulfoxide]
- induction of micronuclei by bystander effect cells [6]: completely suppressed

Molecule: [I-].[K+] [KI, Potassium iodide]
- approximate LD50 in humans [7]: ~500 mg/kg
- 131I- excreted in urine [8]: 30%

Molecule: Cc1cc2nc3c(=O)[nH]c(=O)nc-3n(C[C@H](O)[C@H](O)[C@H](O)CO)c2cc1C [riboflavin]
- mortality and DNA damages [9]: higher mortality rates and more DNA damages

Molecule: O=C([O-])CC(O)(CC(=O)[O-])C(=O)[O-].[Na+].[Na+].[Na+] [sodium citrate]
- treated dogs survived [10]: 100%

Molecule: O=C1O[C@H]([C@@H](O)CO)C(O)=C1O [vitamin C, Ascorbic Acid]
- reduction of mortality rate [11]: 50%
- protection over control [12]: seven-fold
- increase of gamete survival vs. controls (factor) [13]: 2.2

Molecule: Vitamin E
- white cell count [14]: doubled

B1: papain (protein, UniProt P00784 134-345, looked up)
Papain: IPEYVDWRQKGAVTPVKNQGSCGSCWAFSAVVTIEGIIKIRTGNLNEYSEQELLDCDRRSYGCNGGYPWSALQLVAQYGIHYRNTYPYEGVQRYCRSREKGPYAAKTDGVRQVQPYNEGALLYSIANQPVSVVLEAAGKDFQLYRGGIFVGPCGNKVDHAVAAVGYGPNYILIKNSWGTGWGENGYIRIKRGTGNSYGVCGLYTSSFYPVKN
- survival [15]: 50%
